# Assay results reported in patent US20180064702A1 (Teva Pharmaceutical Industries, Ltd., priority 2013, published 2018).
# Experiments:
# [1] = test system: patients afflicted with a progressive form of multiple sclerosis (PPMS, SPMS, PRMS); assay: Phase III clinical trial of oral laquinimod in progressive forms of multiple sclerosis (Example 1); format: in vivo, human; details: daily oral 0.6 mg, 0.9 mg, 1.2 mg and 1.8 mg
# Description: 3-5 Years (2-4 years recruitment duration). Progressive Forms of Multiple Sclerosis, including Primary Progressive Multiple sclerosis (PPMS) and Secondary Progressive Multiple Sclerosis (SPMS). […] Matching placebo for laquinimod arm: matching placebo for laquinimod administered once daily. Approximately 140-240 sites and approximately 1300-2300 subjects. Inclusion Criteria • 1. Subjects must be 25-65 years old. • 2. Subjects must have a confirmed and documented diagnosis of Primary Progressive (according to McDonald), Progressive-Relapsing or Secondary Progressive (clinical definition, without relapses in the previous year) Multiple Sclerosis disease course. • 3. Subjects must be ambulatory with converted Kurtzke EDSS score of 3.0-6.5. • 4. Subjects must have a Pyramidal Functional Systems (FS) score of ≧2. • 5. Subjects must have a threshold Timed 25-Foot Walk ([…]) score. Exclusion Criteria • 1. Subjects with RRMS. • 2. Subjects with clinically significant or unstable medical or surgical condition that would preclude safe and complete study participation, as determined by medical history, physical examination, ECG, laboratory tests or chest X-ray. • 3. […] Confirmed disability progression at 3 and 6 months. This study assesses the efficacy of various daily doses of laquinimod as compared to placebo in multiple sclerosis subjects.
# [2] = test system: patients afflicted with PPMS; assay: Phase II clinical trial of laquinimod in Primary Progressive Multiple Sclerosis subjects (Example 2); format: in vivo, human; details: daily oral 0.6 mg, 1.0 mg and 1.5 mg
# Method: Study Duration • Screening phase: Up to 1 month • Treatment Phase: At least 15 months
# Subjects with Primary Progressive Multiple Sclerosis (approximately 500 subjects in approximately 120 centers, with about 125 subjects per study arm).
# Investigational Product Route and Dosage Form • 1. […] Placebo arm: Three capsules containing placebo (0.5/0.6 mg matching) to be administered orally once daily.
# Eligible subjects are randomized in a 1:1:1:1 ratio into one of the following treatment arms: • 1. […] Matching placebo
# Subjects that stopped treatment with the study drug before the completion of Month 12 visit are considered Early Treatment Discontinuation (ETD) subjects. ETD subjects continue follow-up according to scheduled visits (until Month 12).
# Subjects have the following study visits: Screening visit (−1 Month), Baseline visit (Month 0), and Months 1, 2, 3, 6, 9, 12, and every three months until study termination.
# The following assessments are performed at the specified time points: • 1. Vital signs are measured at each study visit. • 2. A physical examination is performed at months −1, 0, 1, 3, 6 and every 6 months thereafter, ETD (if applicable), and until study completion. • 3. The following safety clinical laboratory tests are performed: • a. Complete blood count (CBC) with differential at all scheduled visits. • b. Serum chemistry (including electrolytes, liver enzymes, urea, creatinine, glucose, total protein, albumin, direct and total bilirubin, Creatinephosphokinase (CPK), serum conventional C-reactive protein (CRP), fibrinogen and pancreatic amylase)—at all scheduled visits. Calculated Glomerular Filtration Rate (GFR) at screening and prior to each MRI scan. • c. Lipid profile (total cholesterol, HDL, LDL, triglycerides)—at baseline (month 0) and every 12 months until completion/ETD. • d. Serum TSH, T3 and Free T4 at baseline (month 0), month 6 and every 12 months until completion/ETD. • e. Urinalysis at the screening visit. • f. Serum human choriogonadotropin beta (β-hCG) in women of child-bearing potential is performed at each scheduled study visit. • g. Urine β-hCG test is performed in women of child-bearing potential at baseline (month 0) and at each scheduled study visit thereafter. • h. Starting after visit Month 3 a β-hCG test is performed in women of child-bearing potential every 28 (±2) days. In case of suspected pregnancy the study drug is discontinued. • 4. Additional blood for analysis of serology for Hepatitis B and C viruses at baseline visit • 5. […] ECG is performed at months −1 (screening), 0 (baseline, three recordings 10 min apart, before first dose), 1, 2, 3, 6, 12 and every 12 months until completion/ETD. • 8. Chest X-ray is performed at month −1, (if not performed within 6 months prior to the screening visit). • 9. Adverse Events (AEs) are monitored throughout the study. • 10. Concomitant Medications are monitored throughout the study. • 11. All subjects—conventional MRI scans with gadolinium at Months 0 (14 to 7 days before Baseline), and 12. In case of ETD, or completion, an additional MRI is performed, provided no study MRI was done within the previous 3 months. • 12. In case of steroid treatment, study MRI is performed before such treatment or delayed to allow a minimum of 14 days but not more than 28 days from the completion of the steroid course. • 13. All subjects—MRI including 3D T1-w acquisitions of the brain and cervical cord, to measure whole brain volume, cord atrophy, thalamic atrophy, cortical atrophy and white matter (WM) atrophy at Months 0 (Baseline), 12 or ETD (if applicable). • 14. Neurological evaluations, including Expanded Disability Status Scale (EDSS), Timed 25-Foot Walk (T25FW)/9-Hole Peg test (9HPG), Ambulation Index (AI), Functional systems (FS), are performed at months −1, 0, and every 3 months thereafter, ETD visit (if applicable) and until completion visit. • 15. […]
# [3] = test system: patients having Relapsing-Remitting Multiple Sclerosis (RRMS); details: cited from earlier work
# [4] = test system: genes related to antigen presentation and corresponding inflammatory pathways; details: mainly via the NFkB pathway; cited from earlier work
# [5] = in vivo; cited from earlier work
compound,measurement,setting,value
CCN(C(=O)c1c(O)c2c(Cl)cccc2n(C)c1=O)c1ccccc1 [laquinimod],accumulation of physical disability,"[1]; PPMS, vs placebo control group",reduces the accumulation of physical disability
same,accumulation of physical disability,"[1]; PPMS, vs the patient at baseline",reduces the accumulation of physical disability
same,accumulation of physical disability,"[1]; PRMS, vs placebo control group",reduces the accumulation of physical disability
same,accumulation of physical disability,"[1]; PRMS, vs the patient at baseline",reduces the accumulation of physical disability
same,accumulation of physical disability,"[1]; SPMS, vs placebo control group",reduces the accumulation of physical disability
same,accumulation of physical disability,"[1]; SPMS, vs the patient at baseline",reduces the accumulation of physical disability
same,accumulation of physical disability,"[1]; progressive form of multiple sclerosis, vs placebo control group",reduces the accumulation of physical disability
same,accumulation of physical disability,"[1]; progressive form of multiple sclerosis, vs the patient at baseline",reduces the accumulation of physical disability
same,accumulation of physical disability,[2]; vs placebo control group,reduces the accumulation of physical disability
same,brain atrophy (percentage change in brain volume from Baseline to month 12),[2]; vs placebo control group,reduces brain atrophy
same,cognitive function,[2]; vs placebo control group,improves cognitive function
same,cumulative number of new T2 lesions,[2]; vs placebo control group,reduces the cumulative number of new T2 lesions
same,accumulation of physical disability,[2]; vs the patient at baseline,reduces the accumulation of physical disability
same,brain atrophy (percentage change in brain volume from Baseline to month 12),[2]; vs the patient at baseline,reduces brain atrophy
same,cognitive function,[2]; vs the patient at baseline,improves cognitive function
same,cumulative number of new T2 lesions,[2]; vs the patient at baseline,reduces the cumulative number of new T2 lesions
same,EDSS progression of disability,[3]; RRMS patients,consistently reduced EDSS progression of disability
same,brain atrophy,[3]; RRMS patients,reduced brain atrophy
same,non-conventional MRI metrics,[3]; RRMS patients,increased non-conventional MRI metrics suggestive of preservation of tissue architecture
same,safety and tolerability profile,"[3]; two phase III trials, relapsing-remitting multiple sclerosis patients",favorable safety and tolerability profile
same,suppression of genes related to antigen presentation,[4],induced suppression of genes related to antigen presentation and corresponding inflammatory pathways
same,oral bioavailability,[5],high
